Laboratory results taken from patent US11192871B2, “5-hydroxytryptamine receptor 7 activity modulators and their method of use” (Temple University-Of The Commonwealth System of Higher …, priority 2014, dated 2021).

Target: Serotonin 5HT7 receptors (Homo sapiens (Human), UniProt P34969)
Experiment: Radiolabel Binding Studies for Serotonin 5HT7 receptors
Settings: for inhibition at 10 µM: read-out: 5-HT7 % inhib @ 10 uM; for IC50: radioligand competition binding, membranes of cells expressing recombinant 5HT7 receptors
Experimental: Radiolabel Binding Studies for Scrotonin 5HT7 Receptors, Method 1:
Eleven dilutions (5× assay concentration) of the compound of the disclosure and chlorpromazine are prepared in the Assay Buffer by serial dilution to yield final corresponding assay concentrations ranging from 10 pM to 10 μM.
(§1) A stock concentration of 5 nM [^3H]LSD (lysergic acid diethyl amide) is prepared in 50 mM Tris-HCl, 10 mM MgCl2, 1 mM EDTA, pH 7.4 (Assay Buffer). Aliquots (50 μl) of radioligand are dispensed into the wells of a 96-well plate containing 100 μl of Assay Buffer. Duplicate 50-μl aliquots of the compound of the disclosure test and chlorpromazine positive control reference compound serial dilutions are added.
(§2) Membrane fractions of cells expressing recombinant 5HT7 receptors (50 μL) are dispensed into each well. The membranes are prepared from stably transfected cell lines expressing 5HT7 receptors cultured on 10-cm plates by harvesting PBS-rinsed monolayers, resuspending and lysing in chilled, hypotonic 50 mM Tris-HCl, pH 7.4, centrifuging at 20,000×g, decanting the supernatant and storing at −80° C.; the membrane preparations are resuspended in 3 ml of chilled Assay Buffer and homogenized by several passages through a 26 gauge needle before using in the assay.
The 250-μl reactions are incubated at room temperature for 1.5 hours, then harvested by rapid filtration onto 0.3% polyethyleneimine-treated, 96-well filter mats using a 96-well Filtermate harvester. Four rapid 500-μl washes are performed with chilled Assay Buffer to reduce non-specific binding. The filter mats are dried, then scintillant is added to the filters and the radioactivity retained on the filters is counted in a Microbeta scintillation counter.
Raw data (dpm) representing total radioligand binding (i.e., specific+non-specific binding) are plotted as a function of the logarithm of the molar concentration of the competitor (i.e., test or reference compound).
Radiolabel Binding Studies for Serotonin 5-HT7 Receptors, Method 2:
as §1, with “[^3H]-5-Hydroxytryptamine ([^3H]-5HT)” for “[^3H]LSD (lysergic acid diethyl amide)”
as §2, with “guage” for “gauge”

| Structure (SMILES) | inhibition at 10 µM [%] | 5-HT7 % inhib @ 10 uM (single concentration of 10 uM, percent inhibition of radioligand binding) [%] | IC50 [µM] |
| --- | --- | --- | --- |
| O=C1OC(CCN2CCN(c3ccc4[nH]ccc4c3)CC2)CC12CCCC2 (stereo not shown) [Entry 160147] | 99.6 | – | – |
| O=C1OC(CCN2CCN(c3ccnc(Cl)c3)CC2)CC12CCCCC2 (stereo not shown) [Entry 160153] | – | 58.2 | – |
| COc1ccnc(N2CCN(CCC3CC4(CCCC4)C(=O)O3)CC2)c1 (stereo not shown) [Entry 230009] | 90 | – | 0.124 |
| COc1ccc(N2CCN(CC[C@@H]3CC(C)(C)C(=O)O3)CC2)cc1 [Entry 230039] | – | – | 1 |
| COc1ccc(N2CCN(CC[C@H]3CC(C)(C)C(=O)O3)CC2)cc1 [Entry 230046] | – | – | 1 |
| CCC1(CC)CC(CCCN2CCN(c3ccc(OC)cc3)CC2)OC1=O (stereo not shown) [Entry 230060] | – | – | 1 |
| CCC1(CC)CC(CCN2CCN(c3ccc4nc(C(F)(F)F)[nH]c4c3)CC2)OC1=O (stereo not shown) [Entry 230068] | – | – | 1 |
| CCC1(CC)CC(CCN2CCN(c3ccc4nc(C)[nH]c4c3)CC2)OC1=O (stereo not shown) [Entry 230069] | 15.9 | – | 1 |
